pIC50: −log10 of the molar value.
Legend:
[1] = biological target: T1, human glucagon receptor (Homo sapiens, UniProt P47871); test: Glucagon Binding Assay (II); conditions: membranes of BHK cells transfected with human glucagon receptor, 125I-glucagon, SPA; read-out: Glu Bd Assay (II) IC50
T1 construct: expressed in transfected cells; host or cells: BHK (baby hamster kidney) cells, membrane preparation
Experimental: Glucagon Binding Assay (II)
BHK (baby hamster kidney cell line) cells are transfected with the human glucagon receptor and a membrane preparation of the cells is prepared.
All steps in the membrane preparation are kept on ice or performed at 4° C. BHK cells are harvested and centrifuged. The pellet is resuspended in homogenisation buffer (25 mM HEPES, pH=7.4, 2.5 mM CaCl2, 1.0 mM MgCl2, 250 mg/L bacitracin, 0.1 mM Pefabloc), homogenised 2×10 sec using Polytron 10-35 homogenizer (Kinematica) and added the same amount of homogenisation buffer as used for resuspension. After centrifugation (15 min at 2000×g) the supernatant is transferred to cold centrifuge tubes and centrifuged for 45 min at 40.000×g. The pellet is resuspended in homogenisation buffer, homogenised 2×10 sec (Polytron) and additional homogenisation buffer is added. The suspension is centrifuged for 45 min at 40.000×g and the pellet is resuspended in resuspension buffer (25 mM HEPES, pH=7.4, 2.5 mM CaCl2, 1.0 mM MgCl2) and homogenised 2×10 sec. (Polytron). […] Stabilisation buffer (25 mM HEPES, pH=7.4, 2.5 mM CaCl2, 1.0 mM MgCl2, 1% bovine serum albumin, 500 mg/L bacitracin, 2.5 M sucrose) is added and the membrane preparation is stored at −80° C.
(§1) The glucagon binding assay is carried out in opti plates (Polystyrene Microplates, Packard). 50 μL assay buffer (25 mM HEPES, pH=7.5, 2.5 mM CaCl2, 1.0 mM MgCl2, 0.003% Tween-20, 0.005% bacitracin, 0.05% sodium azide) and 5 μL glucagon or test compound (in DMSO) are added to each well. […] Finally 50 μL WGA beads containing 1 mg beads are transferred to the well. The opti plates are incubated for 4 hours on a shaker and then settled for 8-48 hours. The opti plates are counted in a Topcounter. Non-specific binding is determined with 500 nM of glucagon.

[2] = biological target: T2, human GIP receptor (Homo sapiens, UniProt P48546); test: GIP Binding Assay; conditions: membranes of BHK cells transfected with human GIP receptor, 125I-GIP, SPA; read-out: GIP Bd Assay IC50
T2 construct: expressed in transfected cells; host or cells: BHK (baby hamster kidney) cells, membrane preparation
T2 sequence (P48546 22-466): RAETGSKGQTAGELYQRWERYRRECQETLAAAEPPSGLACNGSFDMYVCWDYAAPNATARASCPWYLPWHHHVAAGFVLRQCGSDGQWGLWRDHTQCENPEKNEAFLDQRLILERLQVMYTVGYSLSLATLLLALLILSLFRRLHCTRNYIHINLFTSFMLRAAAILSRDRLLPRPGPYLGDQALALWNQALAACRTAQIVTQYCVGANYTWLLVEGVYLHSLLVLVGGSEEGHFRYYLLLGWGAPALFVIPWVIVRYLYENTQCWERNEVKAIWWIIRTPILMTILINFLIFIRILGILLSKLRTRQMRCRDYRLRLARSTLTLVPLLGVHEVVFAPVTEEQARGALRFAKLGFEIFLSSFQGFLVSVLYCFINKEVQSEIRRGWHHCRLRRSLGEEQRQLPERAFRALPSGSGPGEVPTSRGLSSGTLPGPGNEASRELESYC
Experimental: BHK (baby hamster kidney cell line) cells are transfected with the human GIP receptor and a membrane preparation of the cells is prepared.
All steps in the membrane preparation are kept on ice or performed at 4° C. BHK cells are harvested and centrifuged. The pellet is resuspended in homogenisation buffer (25 mM) HEPES, pH=7.4, 2.5 mM CaCl2, 1.0 mM MgCl2, 250 mg/L bacitracin, 0.1 mM Pefabloc), homogenised 2×10 sec using Polytron 10-35 homogenizer (Kinematica) and added the same amount of homogenisation buffer as used for resuspension. After centrifugation (15 min at 2000×g) the supernatant is transferred to cold centrifuge tubes and centrifuged for 45 min at 40.000×g. The pellet is resuspended in homogenisation buffer, homogenised 2×10 sec (Polytron) and additional homogenisation buffer is added. The suspension is centrifuged for 45 min at 40.000×g and the pellet is resuspended in resuspension buffer (25 mM HEPES, pH=7.4, 2.5 mM CaCl2, 1.0 mM MgCl2) and homogenised 2×10 sec. (Polytron). […] Stabilisation buffer (25 mM HEPES, pH=7.4, 2.5 mM CaCl2, 1.0 mM MgCl2, 1% bovine serum albumin, 500 mg/L bacitracin, 2.5 M sucrose) is added and the membrane preparation is stored at −80° C.
as §1, with “The GIP” for “The glucagon”, “μL GIP” for “μL glucagon”, “for 3.5” for “for 4”, “a Top-counter.” for “a Topcounter.”, “of GIP.” for “of glucagon.”

T1 sequence (P47871 26-477): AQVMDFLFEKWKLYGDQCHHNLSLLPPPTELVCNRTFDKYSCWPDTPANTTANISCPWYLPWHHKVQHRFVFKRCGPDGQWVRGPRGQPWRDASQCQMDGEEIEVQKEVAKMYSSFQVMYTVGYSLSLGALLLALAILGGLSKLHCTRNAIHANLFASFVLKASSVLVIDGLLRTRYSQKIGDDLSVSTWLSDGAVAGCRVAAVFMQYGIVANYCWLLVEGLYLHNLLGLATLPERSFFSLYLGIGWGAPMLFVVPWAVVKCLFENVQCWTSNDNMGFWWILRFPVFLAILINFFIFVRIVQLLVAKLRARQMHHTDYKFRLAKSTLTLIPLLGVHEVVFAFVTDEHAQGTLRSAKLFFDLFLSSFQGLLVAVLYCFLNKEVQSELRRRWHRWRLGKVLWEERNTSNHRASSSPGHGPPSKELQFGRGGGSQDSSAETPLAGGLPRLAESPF

SMILES	pIC50 [1]	pIC50 [2]
N#Cc1cc(NC(=O)N(Cc2ccc(C(=O)NC[C@@H](O)C(=O)O)cc2)c2ccc(C3CCCCC3)cc2)cc(C(F)(F)F)c1 [Example 8, (R)-3-{4-[3-(3-Cyano-5-trifluoromethylphenyl)-1-(4-cyclohexylphenyl)ureidomethyl]benzoylamino}-2-hydroxypropionic acid]	7.85	6.50
O=C(NC[C@@H](O)C(=O)O)c1ccc(CN(C(=O)Nc2cc(Br)cc(C(F)(F)F)c2)c2ccc(C3=CCCCC3)cc2)cc1 [Example 9, (R)-3-{4-[3-(3-Bromo-5-trifluoromethylphenyl)-1-(4-cyclohex-1-enylphenyl)ureidomethyl]benzoylamino}-2-hydroxypropionic acid]	7.96	6.55
COc1cc(NC(=O)N(Cc2ccc(C(=O)NC[C@@H](O)C(=O)O)cc2)c2ccc(C3=CCCCC3)cc2)cc(C(F)(F)F)c1 [Example 10, (R)-3-{4-[1-(4-Cyclohex-1-enylphenyl)-3-(3-methoxy-5-trifluoromethylphenyl)ureidomethyl]benzoylamino}-2-hydroxypropionic acid]	7.72	6.53
O=C(NC[C@@H](O)C(=O)O)c1ccc(CN(C(=O)Nc2cccc(Br)c2)c2ccc(C3=CCCCC3)cc2)cc1 [Example 11, (R)-3-{4-[3-(3-Bromophenyl)-1-(4-cyclohex-1-enylphenyl)ureidomethyl]benzoylamino}-2-hydroxypropionic acid]	7.39	6.04
O=C(NC[C@@H](O)C(=O)O)c1ccc(CN(C(=O)Nc2cc(Br)cc(C(F)(F)F)c2)c2ccc(C3CCCCC3)cc2)cc1 [Example 12, (R)-3-{4-[3-(3-Bromo-5-trifluoromethylphenyl)-1-(4-cyclohexylphenyl)ureidomethyl]benzoylamino}-2-hydroxypropionic acid]	8.00	6.69
Cc1cc(NC(=O)N(Cc2ccc(C(=O)NC[C@@H](O)C(=O)O)cc2)[C@H]2CC[C@H](C(C)(C)C)CC2)cc(C(F)(F)F)c1 [Example 15, Trans-(R)-3-{4-[3-(3-methyl-5-trifluoromethylphenyl)-1-(4-tert-butylcyclohexyl)ureidomethyl]benzoylamino}-2-hydroxypropionic acid]	7.46	6.40
O=C(NC[C@H](O)C(=O)O)c1ccc(CN(C(=O)Nc2cc(Cl)cc(Cl)c2)c2ccc(C3=CCCCC3)cc2)cc1 [Example 18, (S)-3-{4-[1-(4-Cyclohex-1-enylphenyl)-3-(3,5-dichlorophenyl)ureidomethyl]benzoylamino}-2-hydroxypropionic acid]	6.75	< 5.82
O=C(NC[C@@H](O)C(=O)O)c1ccc(CN(C(=O)Nc2cc(Cl)cc(Cl)c2)c2ccc(C3=CCCCC3)cc2)cc1 [Example 19, (R)-3-{4-[1-(4-Cyclohex-1-enylphenyl)-3-(3,5-dichlorophenyl)ureidomethyl]benzoylamino}-2-hydroxypropionic acid]	7.82	6.04
O=C(NC[C@@H](O)C(=O)O)c1ccc(CN(C(=O)Nc2cccc(Cl)c2)c2ccc(C3=CCCCC3)cc2)cc1 [Example 20, (R)-3-{4-[3-(3-Chlorophenyl)-1-(4-cyclohex-1-enylphenyl)ureidomethyl]benzoylamino}-2-hydroxypropionic acid]	7.28	6.16
O=C(NC[C@@H](O)C(=O)O)c1ccc(CN(C(=O)Nc2ccccc2)c2ccc(C3=CCCCC3)cc2)cc1 [Example 21, (R)-3-{4-[1-(4-Cyclohex-1-enylphenyl)-3-phenylureidomethyl]benzoylamino}-2-hydroxypropionic acid]	6.53	5.90
O=C(NC[C@@H](O)C(=O)O)c1ccc(CN(C(=O)NCc2ccccc2)c2ccc(C3=CCCCC3)cc2)cc1 [Example 22, (R)-3-{4-[3-Benzyl-1-(4-cyclohex-1-enylphenyl)ureidomethyl]benzoylamino}-2-hydroxypropionic acid]	6.45	5.64
O=C(NC[C@@H](O)C(=O)O)c1ccc(CN(C(=O)Nc2ccc(SC(F)(F)F)cc2)c2ccc(C3CCCCC3)cc2)cc1 [Example 24, (R)-3-{4-[1-(4-Cyclohexylphenyl)-3-(4-trifluoromethylsulfanylphenyl)ureidomethyl]benzoylamino}-2-hydroxypropionic acid]	8.36	7.43
CS(=O)(=O)c1cc(NC(=O)N(Cc2ccc(C(=O)NC[C@@H](O)C(=O)O)cc2)c2ccc(C3=CCCCC3)cc2)ccc1OC(F)(F)F [Example 25, (R)-3-{4-[1-(4-Cyclohexen-1-ylphenyl)-3-(3-methanesulfonyl-4-trifluoromethoxyphenyl)ureidomethyl]benzoylamino}-2-hydroxypropionic acid]	8.00	6.33
Cc1cc(C)cc(NC(=O)N(Cc2ccc(C(=O)NC[C@@H](O)C(=O)O)cc2)[C@H]2CC[C@H](C(C)(C)C)CC2)c1 [Example 26, Trans-(R)-3-{4-[-3-(3,5-bis(methyl)phenyl)-1-(4-tert-butylcyclohexyl)ureidomethyl]benzoylamino}-2-hydroxypropionic Acid]	7.04	6.15
O=C(NC[C@@H](O)C(=O)O)c1ccc(CN(C(=O)Nc2cc(Cl)cc(Cl)c2)c2ccc(C3CCCCC3)cc2)cc1 [Example 27, (R)-3-{4-[1-(4-Cyclohexylphenyl)-3-(3,5-dichlorophenyl)ureidomethyl]benzoylamino}-2-hydroxypropionic Acid]	8.01	6.59
CSc1cccc(NC(=O)N(Cc2ccc(C(=O)NC[C@@H](O)C(=O)O)cc2)c2ccc(C3CCCCC3)cc2)c1 [Example 29, (R)-3-{4-[1-(4-Cyclohexylphenyl)-3-(3-methylsulfanylphenyl)ureidomethyl]benzoylamino}-2-hydroxypropionic Acid]	7.62	6.21
O=C(NC[C@@H](O)C(=O)O)c1ccc(CN(C(=O)Nc2ccc3c(c2)C(F)(F)OC(F)(F)O3)c2ccc(C3=CCCCC3)cc2)cc1 [Example 30, (R)-3-{4-[1-(4-Cyclohex-1-enylphenyl)-3-(2,2,4,4-tetrafluoro-4H-benzo[1,3]dioxin-6-yl)ureido-methyl]benzoylamino}-2-hydroxypropionic Acid]	7.89	6.66
CO[C@H](CNC(=O)c1ccc(CN(C(=O)Nc2cc(Cl)cc(Cl)c2)c2ccc(C3=CCCCC3)cc2)cc1)C(=O)O [Example 31, 3-{4-[1-(4-Cyclohex-1-enylphenyl)-3-(3,5-dichlorophenyl)ureidomethyl]benzoylamino}-2(R)-methoxypropionic Acid]	6.04	≤ 5.52

Reference: patent US6953812B2, “Glucagon antagonists/inverse agonists” (Novo Nordisk, Inc., priority 2000, dated 2005)
